The results in this text go back to patent EP3876933B1, “NEUTROPHIL INFLAMMATION INHIBITOR AND USES THEREOF” (Chang Gung University of Science and Technology, priority 2018, dated 2020).

Data set [1] can be described thus: Liver and kidney function (blood ALT, AST, BUN, creatinine) in imiquimod-induced mice. Type of data set: in vivo, BALB/c mice. Conditions: HKI-4971 20 mg/kg intraperitoneal, alone or in combination with IMQ; n=3. The protocol: (§1) Male BALB/c mice aged 7-8 weeks were used for the development of the imiquimod-induced psoriatic-like plaque model. The dorsal skin of the mice were shaved and received a daily topical dose of 62.5 mg of 5% imiquimod (IMQ) cream (Aldara, MEDA Pharma, Sweden) with or without a test compound (e.g., HKI-4971) treatment by intraperitoneal injection for 7 consecutive days.
In this example, the effect of HKI-4971 (or compound 13) on the development of psoriasis was investigated using the well-established psoriasis animal model, in which imiquimod (IMQ) was used to induce psoriasis-like skin inflammation. Briefly, BALB/c mice are pre-treated by intraperitoneal injection of HKI-4971 (20 mg/kg) for 30 min before 5% IMQ cream was topically administered onto the back of the mice every day for 7 days. Then, skin samples taken from these animals were subjected to microscopy examination and immunohistochemistry staining, while blood samples were subjected to analysis for liver and kidney functions. Results are depicted in FIGs 1 to 3.
Blood samples taken from IMQ- or IMQ+HKI-4971 treated animals were analyzed for the levels of alanine aminotransferase and aspartate transaminase, which were used as indicators for assessing liver function; and the levels of blood […] nitrogen (BUN) and creatinine (CRE), which were used as indicators for assessing the kidney function. […]

The test system of data set [2] is imiquimod-induced psoriasis. Description: Imiquimod-induced psoriasis-like skin inflammation in mice (phenotype, H&E, immunohistochemistry). Type of data set: in vivo, BALB/c mice. Particulars: 20 mg/kg intraperitoneal, 30 min before 5% IMQ cream, every day for 7 days. The protocol:
(§2) Male BALB/c mice aged 7-8 weeks were purchased from BioLASCO (Taipei, Taiwan) and maintained in a room with 12 hr light/dark cycles. Standard laboratory chow and water were available ad libitum. All animal experimental procedures were performed in accordance with guidelines and approved by the Institutional Animal Care and Use Committee of Chang Gung University.
as §1
Tissue samples were fixed in 10% neutral buffered formalin and embedding in paraffin blocks. Sections of the samples were prepared at 5 µm thickness and stained with hematoxylin and eosin (H&E). For immunohistochemistry staining, the sections were incubated with primary antibodies against Ly6g, MPO, and ki67 then the secondary antibody was applied for the detection of the primary antibody according to the manufacturer's instructions of the SuperPicture Polymer Detection Kit (Thermo Fisher, USA). Finally, the section slides were subsequently stained with DAB chromogen and counterstained with hematoxylin. […]

Data set [3] deals with LPS-induced ALI. Briefly: LPS-induced acute lung injury (ALI) in mice (lung MPO activity, H&E, immunohistochemistry). Type of data set: in vivo, BALB/c mice. Conditions: 20 mg/Kg intravenous 1 hr before intratracheal LPS (2 mg/Kg), 5 hrs. The protocol: as §2
Mice were pre-treated with a candidate compound (e.g., HKI-4971), which was dissolved in 50 µl saline solution containing 10% DMSO and 20% Kolliphor EL (Sigma-Aldrich, USA), by intravenous injection. […]
Lung tissues were homogenized in PBS (50 Mm, pH 6.0) containing 0.5% (w/v) hexadecyltrimethylammonium bromide (HETAB) (Sigma-Aldrich, USA) by using the MagNA Lyser Instrument (Roche, Germany), and was further centrifuged at 12,000 ×g for 20 min at 4°C to remove the insoluble material. The peroxidase activity was measured as the oxidation of o-Dianisidine dihydrochloride (Sigma-Aldrich, USA). […] The absorption was determined spectrophotometrically at 405 nm. […]
In this example, the Gram-negative bacterial endotoxin LPS induced ALI in mice was employed to mimic ARDS in human, and the effect of HKI-4971 was evaluated. […]

The test system of data set [4] is human neutrophils. Description: Superoxide anion (O2˙-) generation in fMLF/CB-activated human neutrophils (SOD-inhibitable ferricytochrome c reduction). Type of data set: cell-based. Particulars: Neutrophil; for inhibition at 10 µM: at 10 µM concentration. The method, then: (§3) Human neutrophils were obtained in lipopolysaccharide-free conditions by means of dextran sedimentation and Ficoll centrifugation.
O2˙^- production was determined based on the SOD-inhibitable reduction of ferricytochrome c. Briefly, neutrophils (6 × 10^5/mL) were treated with a candidate compound at 37 °C at various concentrations (0.001 to 10 µM) for 5 min after being supplementing with 0.5 mg/mL ferricytochrome c and 1 mM Ca^2+. Cells were then activated with fMLF (0.1 µM) for 10 min in the pre-process of cytochalasin B (CB, 1 µg/mL) for 3 min. Changes in absorbance with the reduction of ferricytochrome c at 550 nm were continuously monitored in a double-beam, six-cell positioner spectrophotometer with constant stirring (Hitachi U-3010, Tokyo, Japan). Calculations were based on the differences in the reactions with and without SOD (100 U ml^-1) divided by the extinction coefficient for the reduction of ferricytochrome c (ε = 21.1 mM^-1/10 mm).

In data set [5] the test system is human neutrophils. Briefly: Elastase release in fMLF/CB-activated human neutrophils (Methoxysuccinyl-Ala-Ala-Pro-Val-p-nitroanilide substrate). Type of data set: cell-based. Particulars: Neutrophil; for inhibition at 10 µM: at 10 µM concentration. The protocol: as §3
Methoxysuccinyl-Ala-Ala-Pro-Val-p-nitroanilide was employed as the elastase substrate for the determination of elastase release. Briefly, after supplementation with Methoxysuccinyl-Ala-Ala-Pro-Val-p-nitroanilide (100 µM), neutrophils (6 × 10^5/mL) were equilibrated at 37 °C for 2 min and incubated with a candidate compound at various concentrations for 5 min. Cells were then activated with fMLF (0.1 µM) for 10 min in the pre-process of CB (0.5 µg/mL) for 3 min, and changes in absorbance at 405 nm were continuously monitored to evaluate elastase release. Results are expressed as the percentage of elastase release in the drug-free control group, DMSO.

Setting [6] is: FMLP/CB-induced human neutrophils, mean ± S.E.M. (n = 3-5), read-out: Superoxide Anion IC50.
The mark [7] stands for this setting: FMLP/CB-induced human neutrophils, mean ± S.E.M. (n = 3-5).
[8] abbreviates: FMLP/CB-induced human neutrophils, mean ± S.E.M. (n = 3-5), read-out: Elastase Release IC50.

Structures are written as SMILES. Some results are limits rather than exact numbers.

By inhibition is commonly meant the change of the read-out against control, counted positive when it falls. Turning to `Cn1nc(N)c2c(Nc3ccc(O)cc3)nc3ccccc3c21` [Compound 13, 4-(4-Hydroxyanilino)-1-methyl-1H-pyrazolo[4,3-c]quinolin-3-amine], the “functions of liver or kidney (alanine aminotransferase, aspartate transaminase, BUN, CRE in blood)” value in data set [1] was “did not result in significant damage”. Besides, the “markers for cell proliferation (ki-67) and for neutrophils (Ly6g and MPO), immunostaining of skin samples” value in data set [2] is listed as “reduced”. Also, in data set [2], the “severity or progression of IMQ-induced psoriasis” value is given as “reduce the severity or progression”. Besides, the “LPS-induced neutrophil infiltration and lung injury (H&E and neutrophil markers in lung sections)” value in data set [3] is “significantly alleviated”. Moreover, the “MPO activity in lung tissues” value in data set [3] (n=3) is given as “suppressed”. Besides, the IC50 in data set [4] (Homo sapiens, neutrophils in response to fMLF, Table 2, read-out: IC50 for suppressing the superoxide anion generation) is approximately 3.7 nM; in data set [4] (setting [6]), 3.69 ± 1.74 nM; in data set [5] (Homo sapiens, neutrophils in response to fMLF, Table 2, read-out: IC50 for suppressing elastase release), approximately 32 nM; in data set [5] (setting [8]), 32.1 ± 17.4 nM. Also, the values for the inhibition at 10 µM in data set [4] (setting [7]) and in data set [5] (setting [7]) were 88.1 ± 1.19% and 105 ± 2.53%, respectively.

Consider `COc1ccc(Nc2nc3ccccc3c3onc(N)c23)cc1` [Compound 23, 4-(4-Methoxyanilino)isoxazolo[4,5-c]quinolin-3-amine], for which the IC50 in data set [4] (setting [6]) is 8590 ± 290 nM; in data set [5] (setting [8]) it was more than 10000 nM. Further, the inhibition at 10 µM was 59.1 ± 2.03% in data set [4] (setting [7]) and -9.67 ± 3.44% in data set [5] (setting [7]).

For the compound `Cn1nc(N)c2c(Nc3ccccc3O)nc3ccccc3c21` [Compound 11, 4-(2-Hydroxyanilino)-1-methyl-1H-pyrazolo[4,3-c]quinolin-3-amine], the IC50 in data set [4] (setting [6]) worked out at 730 ± 230 nM; in data set [5] (setting [8]), 2240 ± 910 nM. Moreover, the inhibition at 10 µM in data set [4] (setting [7]) was 93.5 ± 1.75%; in data set [5] (setting [7]), 101 ± 4.5%.

Regarding `CC(=O)c1cccc(Nc2nc3ccccc3c3onc(N)c23)c1` [Compound 26, 4-(3-Acetoylanilino)isoxazolo[4,5-c]quinolin-3-amine], the IC50 in data set [4] (setting [6]) was 2880 ± 270 nM; in data set [5] (setting [8]), more than 10000 nM. Besides, the inhibition at 10 µM in data set [4] (setting [7]) was 76.2%; in data set [5] (setting [7]), -4.55 ± 5.83%.
